Results as given in patent US12668785B2, “Combination treatment by administering a recombinant apyrase protein in conjunction with a P2Y12 inhibitor” (ASTRAZENECA AB, priority 2020, dated 2026).
Where two headings read alike, the source gives them in different places.

Legend:
[1] = cited from earlier work; for time to peak plasma concentration: after oral administration; for mean elimination half-life: described in the drug label
platelet aggregation [2] = conditions: cited from earlier work; for time for platelet activity to return to baseline following discontinuance: after discontinuance
animal models [3] = conditions: cited from earlier work
C57BI6 mice [4] = test: Mouse tail bleeding model (blood loss and bleeding time)
Procedure: (§5) C57BI6 mice were administered an intravenous bolus of AZD3366 or vehicle. In separate groups, mice were administered AZD3366 and ticagrelor or ticagrelor only as a bolus and continuous infusion of ticagrelor. The groups, doses and volumes of administration were as described in the following table:
(§6) Twenty min following dosing, bleeding was initiated by cutting 5 mm of the tip of the tail. The tail was rinsed with water and placed in a haemoglobin sensitive device. Light transmission through the blood and water mixture was recorded and converted to absorbance using the PharmLab software (V6.0, AstraZeneca R&D, Gothenburg, Sweden). Transmittance below 95% was defined as bleeding. Total blood loss, (area under the bleeding curve, t=20 min to t=80 min: cumulative blood loss vs time, absorbance*s, abs*s) and bleeding time (BT) were measured over 60 min from the start of tail cutting.

platelet aggregation [5] = test: ADP-induced whole blood platelet aggregation (Multiplate impedance aggregometer) after in vivo dosing; design: species or system mouse; conditions: for PA (AU*min): blood at t = 80 min, ADP 6.5 μmol/L
Procedure: Immediately after the blood sampling, 175 μL whole blood was added to the Multiplate® (Roche Diagnostics GmbH, Mannheim, Germany) mini test cells and mixed with 175 μL 37° C. pre-heated saline (9 mg/mL, Fresenius Kabi AG, Bad Homburg, Germany).

[6] = system: pig animal model of myocardial infarction; test: Cardiac damage assessed by CMR in pig model of myocardial infarction; format: in vivo; conditions: ticagrelor 180 mg p.o. 2 h prior MI, then 90 mg/bid
Procedure: (§1) Regular chow-fed Landrace pigs (n=20; weight≈40 kg) were randomly (Excel randomized function) distributed into four groups to receive: • I) Oral placebo-control (2 h prior Myocardial Infarction (MI) induction n=5) • II) A loading dose of ticagrelor (180 mg; n=5; p.o 2 h prior MI induction) • III) A loading dose of ticagrelor (180 mg; n=5; p.o 2 h prior MI induction and 1 mg/kg AZD3366 i.v. 10 min before reperfusion) • IV) A loading dose of ticagrelor (180 mg; n=5; p.o 2 h prior MI induction and 3 mg/kg AZD3366 i.v. 10 min before reperfusion)
(§2) Thereafter, pigs underwent temporary (90 minutes) balloon occlusion of the mid-left anterior descending coronary artery (experimental MI) and then reperfused, essentially as described in Vilahur et al. 2016. Throughout the following 42 days, the pigs received daily oral maintenance dosing of placebo (group I) or ticagrelor (90 mg/bid, groups II to IV) and serial Cardiac Magnetic Resonance (CMR) assessments were performed at day 3 (early remodeling phase) and day 42 (late remodeling phase) post-MI.
(§3) On the day of MI-induction animals received buprenorphine (0.03 mg/kg) and cefazoline (25 mg/kg) as prophylaxis for pain and wound infection, respectively, and then anaesthetized by administrating an intramuscular injection of ketamine (30 mg/kg), xylazine (2.2 mg/kg), and atropine (0.05 mg/kg). Once tranquilized, animals were endotracheally intubated and anesthesia was maintained by isoflurane inhalation (2%). Prior to starting the MI-induction procedure, an infusion of amiodarone (300 mg) and lidocaine (150 mg) in 1.000 mL of saline (250 mL/h) was initiated as prophylaxis for malignant ventricular arrhythmias through a line placed in the marginal ear vein and a bolus of heparin (100 U/kg) was administered to prevent clot formation in the catheters. […] Complete coronary ischemia (verified by angiography) was maintained for 90 minutes. At the end of the ischemic period, the balloon was completely deflated and animals were allowed to recover. Electrocardiogramand hemodynamic parameters were continuously recorded throughout the entire procedure and the echocardiographic system (Phillips iE33) equipped with a S5-1 sector array transducer was used prior- and post-MI induction to document the initial worsening of left ventricular ejection fraction (LVEF, M-mode analysis using the parasternal long-axis view; Vilahur et al. 2016).
(§4) CMR studies were conducted serially in all animals at Day 3 (early remodeling phase) and Day 42 (late remodeling phase) post-MI. The studies were performed on a 3.0T-CMR system (AchievaVR, Philips, Amsterdam, The Netherlands) and CMR image acquisition was carried out by a CMR specialized technician blinded in terms of treatment. For CMR studies, animals were anaesthetized with an intramuscular injection of a cocktail composed of ketamine, xylazine, and atropine and maintained by a continuous intravenous infusion of propofol to ensure mechanical ventilation. Once the animals were positioned in a head-first supine position with a flexible phased-array surface coil placed over the chest, ECG gating was used to acquire still images of the heart. The following dedicated CMR sequences were acquired in all cases: ‘cine’ Balanced Steady-State Free Precession (bSSFP) imaging sequence to assess wall motion (WM) and cardiac function; T2-weighted short-tau inversion recovery (T2w-STIR) sequence to assess myocardial edema; early gadolinium enhancement to study microvascular obstruction (no reflow phenomenon); and late gadolinium enhancement (LGE) to assess the amount and extent of myocardial necrosis. All the CMR studies followed the same scheme. First, scout images [T1-turbo field echo (TFE) sequence] were obtained to localize the true axes of the heart and define a field of view involving the whole heart. […]

[7] = system: pig animal model of myocardial infarction; test: Global and regional cardiac function assessed by CMR in pig model of myocardial infarction; format: in vivo
Procedure: as §1, §2, §3, §4

[8] = Plasma concentration of ticagrelor by LC-MS/MS; format: in vivo; conditions: C57BI6, mouse, intravenous, t = 80 min, ticagrelor 1.2 mg/kg + 30 μg/kg*min
Procedure: The plasma concentration of ticagrelor was determined by means of a Liquid Chromatographic-Mass Spectrometric (LC-MS/MS) method.

[9] = system: animal models of ischemic stroke; conditions: Sun et al., 2011; Tan et al., 2014; cited from earlier work
C57BI6 mice [10] = conditions: mouse, in vivo, iv
Procedure: as §5, §6

[11] = in vivo; cited from earlier work
[12] = system: adenosine diphosphatase activity; conditions: Moeckel et al. (2014); cited from earlier work
animal models [13] = conditions: cited from earlier work; remark: listed apart in the source
[14] = ticagrelor-treated animals, p<0.001
[15] = 3 Days Post-MI, ticagrelor 180 mg p.o. 2 h prior MI, then 90 mg/bid
[16] = 42 Days Post-MI, ticagrelor 180 mg p.o. 2 h prior MI, then 90 mg/bid
[17] = BSL (baseline), ticagrelor group
[18] = preclinical models (Moekel et al. 2015)

Molecule: CCCSc1nc(N[C@@H]2C[C@H]2c2ccc(F)c(F)c2)c2nnn([C@@H]3C[C@H](O)[C@@H](O)[C@H]3O)c2n1 [AR-C124910XX]
- time to peak plasma concentration [1]: ~2.5 h
- mean elimination half-life [1]: 9 h
- potency of active metabolite relative to ticagrelor (platelet aggregation [2]; in vivo): approximately equipotent

Molecule: CSCCNc1nc(SCCC(F)(F)F)nc2c1ncn2[C@@H]1O[C@H](COP(=O)(O)OP(=O)(O)C(Cl)(Cl)P(=O)(O)O)[C@@H](O)[C@H]1O [Cangrelor]
- time to steady state plasma levels and platelet aggregation inhibition ([1]; from onset of infusion): ≤ 30 min
- elimination half-life ([1]; in vivo): 3 to 6 min
- plasma half-life ([1]; in vivo): less than 9 min
- time for platelet responses to return to baseline (platelet aggregation [2]; after discontinuation): ≤ 15 min
- time to maximal platelet inhibition (platelet aggregation [2]; in vivo): ≤ 15 min

Molecule: COC(=O)[C@H](c1ccccc1Cl)N1CCc2sccc2C1 [Clopidogrel]
- elimination half-life ([1]; following a single dose of 75 mg): approximately 6 hours
- time to peak plasma concentrations of the active metabolite ([1]; following an oral dose, analyte: active metabolite): 30 to 60 min
- time for platelet activity to return to baseline following discontinuance (platelet aggregation [2]): about 5 days
- time at which dose-dependent platelet aggregation inhibition is observed (platelet aggregation [2]; following oral administration of a single dose): around 2 hours
- cardioprotection / protective efficacy (animal models [3]; FIG. 6 of Moeckel et al. (2014)): not cardioprotective

Molecule: CC(=O)Oc1cc2c(s1)CCN(C(C(=O)C1CC1)c1ccccc1F)C2 (stereo not shown) [Prasugrel]
- elimination half-life ([1]; stated after the active metabolite of prasugrel): about 7.4 hours

Molecule: CCCSc1nc(N[C@@H]2C[C@H]2c2ccc(F)c(F)c2)c2nnn([C@@H]3C[C@H](OCCO)[C@@H](O)[C@H]3O)c2n1 [Ticagrelor, (1S,2S,3R,5S)-3-[7-[[(1R,2S)-2-(3,4-difluorophenyl)cyclopropyl]amino]-5-(propylthio)-3H-1,2,3-triazolo[4,5-d]pyrimidin-3-yl]-5-(2-hydroxyethoxy)-1,2-cyclopentanediol]
- BT (s) Median (C57BI6 mice [4]; bleeding time over 60 min, ticagrelor bolus 1.2 mg/kg + infusion 30 μg/kg*min): 3433a, d s
- Blood loss (abs*s) Median (C57BI6 mice [4]; tail transection at t = 20 min, recorded 60 min, ticagrelor bolus 1.2 mg/kg + infusion 30 μg/kg*min): 1157a, b, c abs*s
- BT increase as compared to vehicle (C57BI6 mice [4]; [14]): 5.2 fold
- Blood loss increase as compared to vehicle (C57BI6 mice [4]; [14]): 7.2 fold
- time to peak plasma concentration [1]: approximately 1.5 hours
- mean elimination half-life [1]: 7 h
- PA (AU*min) (platelet aggregation [5]; ticagrelor 1.2 mg/kg + 30 μg/kg*min): 2 ± 2 AU*min
- time maximum inhibition of platelet aggregation is maintained (platelet aggregation [2]; after a dose): more than 8 hours
- time for platelet activity to return to baseline following discontinuance (platelet aggregation [2]): 5 days
- Edema % of LV mass ([6]; 3 Days Post-MI): 13.1 ± 0.9 %
- Edema (gr) ([6]; 3 Days Post-MI): 10.5 ± 0.8 gr
- LV Mass ([6]; 3 Days Post-MI): 81.3 ± 7.4
- Necrosis % of LV mass ([6]; 3 Days Post-MI): 8.2 ± 1.2 %
- Necrosis (gr) ([6]; 3 Days Post-MI): 6.6 ± 1.0 gr
- LV Mass ([6]; 42 Days Post-MI): 108.6 ± 6.9
- Necrosis % of LV mass ([6]; 42 Days Post-MI): 4.3 ± 0.8 %
- Necrosis (gr) ([6]; 42 Days Post-MI): 4.7 ± 1.0 gr
- LVEF % [7, 15]: 50.3 ± 2.9%
- Wall motion (mm) [7, 15]: 1.88 mm
- LVEF % [7, 16]: 47.0 ± 4.4%
- Wall motion (mm) [7, 16]: 2.55 mm
- LVEF % [7, 17]: 53.7 ± 2.8%
- Wall motion (mm) [7, 17]: 2.66 mm
- concentration at 80 min [8]: 8 ± 0.2 µM

Molecule: Clc1ccccc1CN1CCc2sccc2C1 [ticlopidine]
- time to peak plasma concentration [1]: around 2 hours

B1: AZD3366: recombinant optimised form of soluble CD39L3 apyrase (R67G, T69R, N-terminal EVLP), amino acid sequence SEQ ID NO: 2 (protein)
chain: EVLPPGLKYGIVLDAGSSGTRVYVYQWPAEKENNTGVVSQTFKCSVKGSGISSYGNNPQDVPRAFEECMQKVKGQVPSHLHGSTPIHLGATAGMRLLRLQNETAANEVLESIQSYFKSQPFDFRGAQIISGQEEGVYGWITANYLMGNFLEKNLWHMWVHPHGVETTGALDLGGASTQISFVAGEKMDLNTSDIMQVSLYGYVYTLYTHSFQCYGRNEAEKKFLAMLLQNSPTKNHLTNPCYPRDYSISFTMGHVFDSLCTVDQRPESYNPNDVITFEGTGDPSLCKEKVASIFDFKACHDQETCSFDGVYQPKIKGPFVAFAGFYYTASALNLSGSFSLDTFNSSTWNFCSQNWSQLPLLLPKFDEVYARSYCFSANYIYHLFVNGYKFTEETWPQIHFEKEVGNSSIAWSLGYMLSLTNQIPAESPLIRLPIEPPV
modifications: N-terminal EVLP
- reperfusion, re-occlusion and intracerebral bleeding [9]: enhance reperfusion, reduce re-occlusion and reduce intracerebral bleeding
- BT (s) Median (C57BI6 mice [10]; 1 mg/kg): 589 s
- Blood loss (abs*s) Median (C57BI6 mice [10]; 1 mg/kg): 157 abs*s
- BT (s) Median (C57BI6 mice [10]; 3 mg/kg): 1438 s
- Blood loss (abs*s) Median (C57BI6 mice [10]; 3 mg/kg): 342e abs*s
- platelet aggregation (PA) inhibition (platelet aggregation [5]; AZD3366 1 and 3 mg/kg): complete platelet aggregation (PA) inhibition
- PA (AU*min) (platelet aggregation [5]; AZD3366 1.0 mg/kg): 2 ± 2 AU*min
- PA (AU*min) (platelet aggregation [5]; AZD3366 3.0 mg/kg): 0 ± 0 AU*min
- bleeding time (animal models [3]; Moeckel et al. (2014)): without an increase in bleeding time
- infarction size (animal models [3]; Moeckel et al. (2014)): decreased infarction size
- plasma half-life compared with native apyrase [11]: 50 times
- adenosine diphosphatase activity compared with native apyrase [12]: four times higher
- time until active after administration (animal models [13]; animal models): ≤ 5 min
- time until return to baseline (animal models [13]; animal models): 3 to 4 weeks
- time activity is maintained (animal models [13]; [18]): more than 24 hours
- time to high levels of activity after administration (animal models [13]; [18]): within minutes
